In US20140196172A1, “Organelle Targeting Nanocarriers” (Her Majesty the Queen in Right of Canada, as Repre sented …, priority 2011, published 2014):

Assays:
[1] = system: tobacco protoplasts; assay: Incubation of tobacco protoplasts with fluorescently labeled peptides, confocal microscopy; assay type: cell-based, Nicotiana benthamiana; details: fluorescein-labelled peptide 20 μM, 1 hour, confocal (Olympus)
Protocol: Nicotiana benthamiana plants are grown for 6-8 weeks and kept in the dark for 24 hrs prior to all experiments. All pipetting is done slowly with wide bore pipette tips to prevent protoplast lysis. Leaves are cut on the underside in many shallow thin slices, with the center vein taken out, and incubated underside down with enzyme digest solution [2% cellulase and 2% macerozyme (Yakult Honsha Co Ltd, Japan) in CPW (cell protoplast washing) solution, pH 5.6 (Frearson E M, Power J B, Cocking E C (1973) Dev Biol 33: 130-137)] in […] Petri dishes for 3-5 hrs at 28° C. After incubation, leaves are gently shaken with forceps to release any remaining protoplasts, and medium is gently filtered through […] sieves and transferred into 50 mL centrifuge tubes. The medium is spun for 5 min at 300 g at 4° C., and a floating band of protoplasts is removed from the top of the suspension, resuspended in W5 wash solution (154 mM NaCl, 125 mM CaCl2.2H2O, 5 mM KCl, 5 mM glucose, 0.5 M mannitol adjusted to pH 5.8 with 0.1 M KOH), and spun for 3 mins at 300 g at 4° C. The pellet is gently layered on 5 mL of 20% maltose in a 15 mL centrifuge tube, and centrifuged 5 mins at 300 g. A floating band in the center of the solution is carefully removed and resuspended with MaMg solution (15 mM MgCl2, 0.1% MES, 0.4 M mannitol, adjusted to pH 5.6 with KOH), and spun for 3 mins at 300 g at 4° C. The protoplast suspension is diluted to 100,000 cells/ml using a hemocytometer.
A stock solution of fluoresceinated mTPs or cTPs (100 μM) prepared with sterile optimum water is added to protoplast suspension at a final concentration of 20 μM. Each suspension is incubated at room temperature for 1 hour in the dark. Following incubation, 25% Trypsin EDTA is added for 5 minutes and the solution is centrifuged for 2 minutes at 120 g. The pellet is resuspended in fresh MaMg media, and 1.5 μL MitoTracker® Orange CM-H2TMRos (M7511, Invitrogen) is added for 15 minutes, followed by centrifugation for 2 minutes at 120 g. Protoplasts are mounted on slides in 1% low melting point agar (2:1 ratio of agar to protoplast suspension) for confocal microscopy (Olympus; both XY cross section and XYZ depth images).
Cells are observed using a confocal microscope (Nikon C1, Nikon Canada Inc. or Olympus FluoView™) to analyse the localization of the fluoresceinated mTPs or cTPs (excitation wavelength 490 nm/emission wavelength 520 nm). Chloroplasts are identified by autofluorescence. The fluorescent dye MitoTracker® Orange CM-H2TMRos (M7511, Invitrogen) is used to stain mitochondria (excitation wavelength 554 nm/emission wavelength 576 nm). Fluorescence emissions are collected in z-confocal planes of […] and analyzed using EZ-C1 Software Version 3.6 (Nikon) or Olympus FluoView™ software version 2.0b (Olympus).

[2] = system: F1112 (bovine colonic cell line); assay: Uptake of labeled peptides by F1112 cells, photometric cell imaging; assay type: cell-based; details: for Average concentration of labeled peptide measured in cells, F1112: cells exposed to labeled peptide at 17 μM; for Photometric Cell Imaging (average counts/sec) F1112: 1 hr, background about 1×10^5 counts/sec
Protocol: Caco-2 and F1112 cells are cultured in Dulbecco's Modified Eagle Medium (DMEM) containing 10% (v/v) fetal bovine serum (FBS) and 50 μg/ml gentamycin at 37° C. in a 95% humidified atmosphere containing 5% CO2. The cells are grown in Falcon™ […] 75 cm^2 cell culture flasks until they reach confluency, then are detached with 0.25% trypsin and 0.02% EDTA and washed with DMEM.
Preparations used for photometric cell imaging are prepared by adding 1000 cells to a Nunc coverglass chamber (2.5 cm^2). Cells are cultured as described above for 3 to 7 days. The cell monolayers are rinsed three times with epithelial cell saline (pH 7.4).
Varying concentrations of fluoresceinated mTPs (100 μM) are added to epithelial cell saline to obtain a final working volume of 400 μl. Final concentrations added to the Caco-2, F1112 and MG cell monolayers as described above are 17 μM, 9 μM and 4 μM. Cells are incubated with the peptides for 1 hr in the dark at 37° C. in a 95% humidified atmosphere containing 5% CO2. At the end of the incubation period, the cell monolayer is rinsed three times with epithelial cell saline and 500 μl of epithelial cell saline is added.
Uptake of labeled peptides by cells is quantified using a photometric detector/cell-imaging system (PTI). An excitation scan is run to determine if uptake has occurred as indicated by peaks at the appropriate wavelengths and if the amount changes in a dose-dependent manner compared to unlabeled cells. A time-based scan is then performed at the optimal excitation and emission wavelength to quantify total uptake, using about 20 cells/view/replicate.

MAALIPAIASLPRAQVEKPHPMPVSTRPGLVS (listed as Triticum aestivum) [cTP4]
Organelle localization [1]: localize to chloroplasts

MAAWMRSLFSPLKKLWIRMH (Zea mays) [mTP2]
Organelle localization [1]: localize to mitochondria
Average concentration of labeled peptide measured in cells, F1112 [2]: 70 nm
Photometric Cell Imaging (average counts/sec) F1112 ([2]; labeled peptide 4 μM): 450000 counts/sec
Photometric Cell Imaging (average counts/sec) F1112 ([2]; labeled peptide 9 μM): 1800000 counts/sec
Photometric Cell Imaging (average counts/sec) F1112 ([2]; labeled peptide 17 μM): 1700000 counts/sec

MFSYLPRYPLRAASARALVRATRPSYRSALLRYQ (listed as Triticum aestivum) [mTP1]
Average concentration of labeled peptide measured in cells, F1112 [2]: 49 nm
Photometric Cell Imaging (average counts/sec) F1112 ([2]; labeled peptide 4 μM): 330000 counts/sec
Photometric Cell Imaging (average counts/sec) F1112 ([2]; labeled peptide 9 μM): 560000 counts/sec
Photometric Cell Imaging (average counts/sec) F1112 ([2]; labeled peptide 17 μM): 1200000 counts/sec

MGGCVSTPKSCVGAKLR (listed as Arabidopsis thaliana) [cTP1]
Organelle localization [1]: localize to chloroplasts

MKLLWRLILSRKW (listed as Arabidopsis thaliana) [mTP3]
Organelle localization [1]: localize to mitochondria
Average concentration of labeled peptide measured in cells, F1112 [2]: 53 nm
Photometric Cell Imaging (average counts/sec) F1112 ([2]; labeled peptide 4 μM): 350000 counts/sec
Photometric Cell Imaging (average counts/sec) F1112 ([2]; labeled peptide 9 μM): 1100000 counts/sec
Photometric Cell Imaging (average counts/sec) F1112 ([2]; labeled peptide 17 μM): 1300000 counts/sec

MLFRLRRSVRLRGLLA (listed as Arabidopsis thaliana) [mTP5]
Average concentration of labeled peptide measured in cells, F1112 [2]: 60 nm
Photometric Cell Imaging (average counts/sec) F1112 ([2]; labeled peptide 4 μM): 440000 counts/sec
Photometric Cell Imaging (average counts/sec) F1112 ([2]; labeled peptide 9 μM): 2000000 counts/sec
Photometric Cell Imaging (average counts/sec) F1112 ([2]; labeled peptide 17 μM): 1600000 counts/sec

MQTLTASSSVSSIQRHRPHPAGRRSSSVTFS (listed as Triticum aestivum) [cTP2]
Organelle localization [1]: localize to chloroplasts

MSSPPPLFTSCLPASSPSIRRDSTSGSVTSPLR (listed as Arabidopsis thaliana) [cTP5]
Organelle localization [1]: localize to chloroplasts

MWWRRSRTNSLRYT (listed as Arabidopsis thaliana) [mTP4]
Average concentration of labeled peptide measured in cells, F1112 [2]: 144 nm
Photometric Cell Imaging (average counts/sec) F1112 ([2]; labeled peptide 4 μM): 250000 counts/sec
Photometric Cell Imaging (average counts/sec) F1112 ([2]; labeled peptide 9 μM): 300000 counts/sec
Photometric Cell Imaging (average counts/sec) F1112 ([2]; labeled peptide 17 μM): 3500000 counts/sec
